Measured values reported in ChEMBL document CHEMBL5625207, “RIPK2 inhibitors for disease therapy: Current status and perspectives” (Eur J Med Chem, 2023).

What was measured:
[1] = molecular target: T1, Receptor-interacting serine/threonine-protein kinase 2 (Homo sapiens, UniProt O43353); assay: Inhibition of RIPK2 (unknown origin)
[2] = molecular target: T1, Receptor-interacting serine/threonine-protein kinase 2; assay: Inhibition of full length FLAG His-tagged RIPK2 (unknown origin) expressed in Baculovirus by fluorescence polarization assay
[3] = molecular target: T1, Receptor-interacting serine/threonine-protein kinase 2; assay: Inhibition of RIPK2 (unknown origin) using (CRRKSLVGTPYWMAPE) peptide as substrate pre-incubated for 60 mins followed by substrate addition and measured after 2 hrs by fluorescence polarization assay
[4] = molecular target: von Hippel-Lindau disease tumor suppressor/Receptor-interacting serine/threonine-protein kinase 2 (Homo sapiens, UniProt O43353+P40337); assay: Protac activity at VHL/RIPK2 in human THP-1 cells assessed as RIPK2 degradation measured after 16 hrs by Western blot analysis; format: cell-based
[5] = molecular target: T1, Receptor-interacting serine/threonine-protein kinase 2; assay: Inhibition of RIPK2 (unknown origin) expressed in Escherichia coli
[6] = molecular target: T1, Receptor-interacting serine/threonine-protein kinase 2; assay: Inhibition of RIPK2 (unknown origin) by ADP-Glo assay

T1 sequence (O43353 whole entry): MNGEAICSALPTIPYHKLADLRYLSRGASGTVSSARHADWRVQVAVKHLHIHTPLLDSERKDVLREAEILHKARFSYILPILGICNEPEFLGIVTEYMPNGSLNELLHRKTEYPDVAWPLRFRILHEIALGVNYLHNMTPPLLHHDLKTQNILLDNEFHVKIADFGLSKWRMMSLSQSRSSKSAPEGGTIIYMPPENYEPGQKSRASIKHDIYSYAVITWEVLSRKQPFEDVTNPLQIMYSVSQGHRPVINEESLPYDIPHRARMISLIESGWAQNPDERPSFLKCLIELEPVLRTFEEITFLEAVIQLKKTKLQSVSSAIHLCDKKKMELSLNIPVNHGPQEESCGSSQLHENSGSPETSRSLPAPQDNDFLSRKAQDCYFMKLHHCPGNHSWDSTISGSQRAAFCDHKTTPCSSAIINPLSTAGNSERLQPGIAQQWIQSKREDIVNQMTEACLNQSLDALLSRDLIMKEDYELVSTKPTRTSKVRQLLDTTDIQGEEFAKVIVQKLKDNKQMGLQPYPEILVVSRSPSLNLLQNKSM
Sequence of von Hippel-Lindau disease tumor suppressor/Receptor-interacting serine/threonine-protein kinase 2 (O43353 whole entry): as above
Sequence of von Hippel-Lindau disease tumor suppressor/Receptor-interacting serine/threonine-protein kinase 2 (P40337 whole entry): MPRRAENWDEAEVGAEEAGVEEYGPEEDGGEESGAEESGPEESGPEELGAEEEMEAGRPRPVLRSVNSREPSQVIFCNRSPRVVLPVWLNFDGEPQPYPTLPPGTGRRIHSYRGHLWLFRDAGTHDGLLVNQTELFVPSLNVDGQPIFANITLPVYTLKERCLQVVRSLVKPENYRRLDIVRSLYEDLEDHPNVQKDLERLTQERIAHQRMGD

Cc1ccc(-c2cn([C@H]3CC[C@@H](N)CC3)c3ncnc(N)c23)c(F)c1
IC50 [1]: 0.6 nM
IC50 [2]: 0.6 nM

Cc1ccc(-c2nn(C(C)(C)CN(C)C)c3ncnc(N)c23)cc1
IC50 [3]: 1010 nM
IC50 [2]: 10 nM

Cc1ncsc1-c1ccc(CNC(=O)C2C[C@H](O)CN2C(=O)[C@@H](NC(=O)COCCOCCOCCOCCOc2cc3nccc(Nc4ccc5scnc5c4)c3cc2S(=O)(=O)C(C)(C)C)C(C)(C)C)cc1 (some centres undefined)
IC50 [4]: 2 nM

c1cc2cc(n1)NCCOCCNc1ccc3ncc-2n3n1
IC50 [5]: 14.1 nM
IC50 [2]: 14.1 nM

c1cc(-c2ccc3ncnc(Nc4ccc5scnc5c4)c3c2)ccn1
IC50 [6]: 5.1 nM
IC50 [2]: 5.1 nM
